From the supplement of paper PMC11208160

Assay: recombinant barcode read abundance after kanamycin selection (control-corrected) (log10(CPM+1)); higher = more efficient recombination; sequences stand for … in AGTGCAGAGAAAATCGGCCAGTTTTCTCTGCCTGCAGTCCGCATGCCGT…AGATTTATGCAGCGGACTGCCTTTCTCCCAAAGTGATAAACCGGACAGTATCATGGACCGGTTTTCCCGGTAATCCGTATTTGCAAGGTTGGTTTCACT; site = the 11-nt target
Method in brief: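 A promoter, a target, a barcode and the first 104 bridge RNA bases under J23119 made up each oligo. Oligos were Gibson-cloned into a vector bearing the other 73 bp and a T7-inducible recombinase, then co-electroporated into E. coli with a donor plasmid and plated in duplicate on chloramphenicol/ampicillin LB agar (control) or chloramphenicol/ampicillin/kanamycin with 0.1 mM IPTG. Recombination efficiency is the averaged, control-corrected counts per million of recombinant-junction barcodes. Reported values are log10(CPM+1).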
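Further: IS621 recombinase and bridge RNA in Escherichia coli cells.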

## GAGCGGACTTGGGTTCTAACCTGTTGCCT (site GAGCAGACTAG)
  recombinant barcode read abundance (log10): 0.698

## GAGCGGACTTGGGTTCTAACCTGTTGCCT (site GAGCCGACTAG)
  recombinant barcode read abundance (log10): 0.388

## GAGCGGACTTGGGTTCTAACCTGTTGCCT (site GAGCGGACTAG)
  recombinant barcode read abundance (log10): 1.68

## GAGCGGACTTGGGTTCTAACCTGTTGCCT (site GAGCTGACTAG)
  recombinant barcode read abundance (log10): 0.129

## GAGCTACCTTGGGTTCTAACCTGTTGCCA (site GAGCTACCTAG)
  recombinant barcode read abundance (log10): 0.796

## GAGCTACCTTGGGTTCTAACCTGTTGCCA (site GAGCTACCTCG)
  recombinant barcode read abundance (log10): 0.213

## GAGCTACCTTGGGTTCTAACCTGTTGCCA (site GAGCTACCTGG)
  recombinant barcode read abundance (log10): 0.13

## GAGCTACCTTGGGTTCTAACCTGTTGCCA (site GAGCTACCTTG)
  recombinant barcode read abundance (log10): 1.11

## GAGCTACCTTGGGTTCTAACCTGTTGCCG (site GAGCTACCTAG)
  recombinant barcode read abundance (log10): 0.837

## GAGCTACCTTGGGTTCTAACCTGTTGCCG (site GAGCTACCTCG)
  recombinant barcode read abundance (log10): 1.11

## GAGCTACCTTGGGTTCTAACCTGTTGCCG (site GAGCTACCTGG)
  recombinant barcode read abundance (log10): 0.0124

## GAGCTACCTTGGGTTCTAACCTGTTGCCG (site GAGCTACCTTG)
  recombinant barcode read abundance (log10): 0.214

## GAGCTCACTTGGGTTCTAACCTGTTGCCA (site GAGCACCCTTG)
  recombinant barcode read abundance (log10): 0.0579

## GAGCTCACTTGGGTTCTAACCTGTTGCCA (site GAGCTCACTTG)
  recombinant barcode read abundance (log10): 0.514

## GAGCTGACTTGGGTTCTAACCTGTTGCCT (site GAGCAGACTAG)
  recombinant barcode read abundance (log10): 0.182

## GAGCTGACTTGGGTTCTAACCTGTTGCCT (site GAGCCGACTAG)
  recombinant barcode read abundance (log10): 0.488

## GAGCTGACTTGGGTTCTAACCTGTTGCCT (site GAGCGGACTAG)
  recombinant barcode read abundance (log10): 0.0812

## GAGCTGACTTGGGTTCTAACCTGTTGCCT (site GAGCTGACTAG)
  recombinant barcode read abundance (log10): 1.49

## GAGCTTGCTTGGGTTCTAACCTGTTGCGA (site GAGCTTGCTTC)
  recombinant barcode read abundance (log10): 0.949

## GAGCTTGCTTGGGTTCTAACCTGTTGCGA (site TGCGGGTCTAG)
  recombinant barcode read abundance (log10): 0.122

## GAGGACTCTTGGGTTCTAACCTGTTGCCT (site GAGGACTCTAG)
  recombinant barcode read abundance (log10): 3

## GAGGACTCTTGGGTTCTAACCTGTTGCCT (site GAGGACTCTCG)
  recombinant barcode read abundance (log10): 0.0247

## GAGGACTCTTGGGTTCTAACCTGTTGCCT (site GAGGACTCTGG)
  recombinant barcode read abundance (log10): 1.29

## GAGGACTCTTGGGTTCTAACCTGTTGCCT (site GAGGACTCTTG)
  recombinant barcode read abundance (log10): 0.0974

## GAGGCTCCTTGGGTTCTAACCTGTTGCGT (site GAAGCTCCTAC)
  recombinant barcode read abundance (log10): 1.54

## GAGGCTCCTTGGGTTCTAACCTGTTGCGT (site GAGGCTCCTAC)
  recombinant barcode read abundance (log10): 2.97

## GAGGGCCCTTGGGTTCTAACCTGTTGCAG (site GAGGGCCCTCA)
  recombinant barcode read abundance (log10): 2.07

## GAGGGCCCTTGGGTTCTAACCTGTTGCAG (site GAGGGCCCTCC)
  recombinant barcode read abundance (log10): 0.926

## GAGGGCCCTTGGGTTCTAACCTGTTGCAG (site GAGGGCCCTCG)
  recombinant barcode read abundance (log10): 1.4

## GAGGGCCCTTGGGTTCTAACCTGTTGCAG (site GAGGGCCCTCT)
  recombinant barcode read abundance (log10): 2.88

## GAGGGCCCTTGGGTTCTAACCTGTTGCCT (site AAGGGCCCTAG)
  recombinant barcode read abundance (log10): 1.38

## GAGGGCCCTTGGGTTCTAACCTGTTGCCT (site CAGGGCCCTAG)
  recombinant barcode read abundance (log10): 1.04

## GAGGGCCCTTGGGTTCTAACCTGTTGCCT (site GAGGGCCCTAG)
  recombinant barcode read abundance (log10): 2.41

## GAGGGCCCTTGGGTTCTAACCTGTTGCCT (site TAGGGCCCTAG)
  recombinant barcode read abundance (log10): 1.04

## GAGGGTCCTTGGGTTCTAACCTGTTGCCT (site GAGGGTCCTAA)
  recombinant barcode read abundance (log10): 0.451

## GAGGGTCCTTGGGTTCTAACCTGTTGCCT (site GAGGGTCCTAC)
  recombinant barcode read abundance (log10): 0.133

## GAGGGTCCTTGGGTTCTAACCTGTTGCCT (site GAGGGTCCTAG)
  recombinant barcode read abundance (log10): 2.56

## GAGGGTCCTTGGGTTCTAACCTGTTGCCT (site GAGGGTCCTAT)
  recombinant barcode read abundance (log10): 0.457

## GAGGGTCCTTGGGTTCTAACCTGTTGCTT (site GAGGGTCCTAA)
  recombinant barcode read abundance (log10): 2

## GAGGGTCCTTGGGTTCTAACCTGTTGCTT (site GAGGGTCCTAC)
  recombinant barcode read abundance (log10): 0.598

## GAGGGTCCTTGGGTTCTAACCTGTTGCTT (site GAGGGTCCTAG)
  recombinant barcode read abundance (log10): 1.72

## GAGGGTCCTTGGGTTCTAACCTGTTGCTT (site GAGGGTCCTAT)
  recombinant barcode read abundance (log10): 1.83

## GAGGGTGCTTGGGTTCTAACCTGTTGCCT (site GAGGGTGCTAG)
  recombinant barcode read abundance (log10): 1.89

## GAGGGTGCTTGGGTTCTAACCTGTTGCCT (site GAGGGTTCTAT)
  recombinant barcode read abundance (log10): 0.121

## GAGGTATCTTGGGTTCTAACCTGTTGCCA (site GAGGTATCTAC)
  recombinant barcode read abundance (log10): 0.038

## GAGGTATCTTGGGTTCTAACCTGTTGCCA (site GAGGTATCTTG)
  recombinant barcode read abundance (log10): 1.12

## GAGGTATCTTGGGTTCTAACCTGTTGCTA (site GAGGTATCTAA)
  recombinant barcode read abundance (log10): 0.201

## GAGGTATCTTGGGTTCTAACCTGTTGCTA (site GAGGTATCTTA)
  recombinant barcode read abundance (log10): 0.345

## GAGGTGCCTTGGGTTCTAACCTGTTGCTG (site CTAACTACTAC)
  recombinant barcode read abundance (log10): 0.0482

## GAGGTGCCTTGGGTTCTAACCTGTTGCTG (site GAGGTGCCTCA)
  recombinant barcode read abundance (log10): 2

## GAGTCGCCTTGGGTTCTAACCTGTTGCCT (site GAGTCGCCTAG)
  recombinant barcode read abundance (log10): 0.263

## GAGTCGCCTTGGGTTCTAACCTGTTGCCT (site GAGTCGTCTAG)
  recombinant barcode read abundance (log10): 0.118

## GAGTCGCCTTGGGTTCTAACCTGTTGCGG (site GAGTAGCCTCC)
  recombinant barcode read abundance (log10): 0.0862

## GAGTCGCCTTGGGTTCTAACCTGTTGCGG (site GAGTCGCCTCC)
  recombinant barcode read abundance (log10): 1.22

## GAGTCGCCTTGGGTTCTAACCTGTTGCGG (site GAGTGGCCTCC)
  recombinant barcode read abundance (log10): 0.188

## GAGTCGCCTTGGGTTCTAACCTGTTGCGG (site GAGTTGCCTCC)
  recombinant barcode read abundance (log10): 0.0886

## GAGTCGGCTTGGGTTCTAACCTGTTGCTT (site GAGACGGCTAA)
  recombinant barcode read abundance (log10): 0.23

## GAGTCGGCTTGGGTTCTAACCTGTTGCTT (site GAGCCGGCTAA)
  recombinant barcode read abundance (log10): 0

## GAGTCGGCTTGGGTTCTAACCTGTTGCTT (site GAGGCGGCTAA)
  recombinant barcode read abundance (log10): 0.0495

## GAGTCGGCTTGGGTTCTAACCTGTTGCTT (site GAGTCGGCTAA)
  recombinant barcode read abundance (log10): 0.778

## GAGTCTACTTGGGTTCTAACCTGTTGCAG (site GAGTCTACTCG)
  recombinant barcode read abundance (log10): 0.339

## GAGTCTACTTGGGTTCTAACCTGTTGCAG (site GAGTCTACTCT)
  recombinant barcode read abundance (log10): 0.494

## GAGTCTACTTGGGTTCTAACCTGTTGCTT (site GAATCTACTAA)
  recombinant barcode read abundance (log10): 0.0356

## GAGTCTACTTGGGTTCTAACCTGTTGCTT (site GACTCTACTAA)
  recombinant barcode read abundance (log10): 0.813

## GAGTCTACTTGGGTTCTAACCTGTTGCTT (site GAGTCTACTAA)
  recombinant barcode read abundance (log10): 0

## GAGTCTACTTGGGTTCTAACCTGTTGCTT (site GATTCTACTAA)
  recombinant barcode read abundance (log10): 0.0603
